In BindingDB's records for doi:10.7270/Q2FF3QRT (University of Pittsburgh, 2006):

target: T1, M-phase inducer phosphatase 2 (Homo sapiens, UniProt P30305); assay: inhibition of Cdc25B catalytic domain activity – biochemical, dose response, selectivity assay, confirmation (AID 443)
T1 sequence (P30305 whole entry): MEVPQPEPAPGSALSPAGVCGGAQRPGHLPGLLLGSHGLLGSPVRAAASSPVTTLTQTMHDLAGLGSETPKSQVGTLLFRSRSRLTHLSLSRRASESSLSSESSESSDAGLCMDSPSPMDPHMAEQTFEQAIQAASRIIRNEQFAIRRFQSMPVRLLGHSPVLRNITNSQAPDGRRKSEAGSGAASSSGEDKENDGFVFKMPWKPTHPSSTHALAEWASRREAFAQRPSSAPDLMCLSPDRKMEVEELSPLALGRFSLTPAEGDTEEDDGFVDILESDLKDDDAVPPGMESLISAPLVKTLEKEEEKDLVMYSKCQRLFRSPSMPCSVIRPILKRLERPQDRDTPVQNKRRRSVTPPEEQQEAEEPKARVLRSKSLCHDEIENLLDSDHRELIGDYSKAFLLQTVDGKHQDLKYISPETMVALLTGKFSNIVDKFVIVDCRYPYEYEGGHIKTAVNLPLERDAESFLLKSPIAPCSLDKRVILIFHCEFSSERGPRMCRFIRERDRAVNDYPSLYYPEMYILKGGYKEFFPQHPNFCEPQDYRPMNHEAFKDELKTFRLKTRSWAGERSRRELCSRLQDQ

Compound	IC50 [µM]
Cc1ccc2c(c1C)NC(C(=O)O)C1CC=CC21 (stereo not given)	10.6
CCn1nc(-c2ccccc2)nc2c(=O)n(C)c(=O)nc1-2 [1-Ethyl-6-methyl-3-phenyl-1H-pyrimido[5,4-e][1,2,4]triazine-5,7-dione]	0.223
CC(C)Cn1c(N)c(C(=O)COC(=O)c2cc(-c3ccco3)nc3ccccc23)c(=O)n(C)c1=O [2-(2-furanyl)-4-quinolinecarboxylic acid [2-[4-amino-1-methyl-3-(2-methylpropyl)-2,6-dioxo-5-pyrimidinyl]-2-oxoethyl] ester]	13.1
CCCCC[C@H](O)C=C[C@H]1C=CC(=O)[C@@H]1C/C=C\CCCC(=O)O [(Z)-7-[(1R,5S)-2-oxidanylidene-5-[(E,3S)-3-oxidanyloct-1-enyl]cyclopent-3-en-1-yl]hept-5-enoic acid]	43.1
COc1ccc(Cn2c(C)nc3c(c2=O)c2nc4ccccc4nc2n3Cc2ccco2)cc1 [MLS000079944]	31.5
